Assays:
human FPR2 = human FPR2 (Homo sapiens (Human), UniProt P25090); experiment: FPR2 cyclic adenosine monophosphate (cAMP) assay; type: cell-based; details: CHO cells overexpressing human FPR2; forskolin 5 µM; inhibition of cAMP production; read-out: hFPR2 cAMP2 EC50
Summary of the method: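 CHO cells overexpressing human FPR2 (2,000/well) incubated 30 min at room temperature with compound (0.020 nM–100 µM, 1% DMSO), 5 µM forskolin and 200 µM IBMX.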

human FPR1 = human FPR1 (Homo sapiens (Human), UniProt P21462); experiment: FPR1 cyclic adenosine monophosphate (cAMP) assay; type: cell-based; details: CHO cells overexpressing human FPR1; forskolin 10 µM; inhibition of cAMP production; read-out: hFPR1 cAMP EC50
Sequence of human FPR1 (P21462 whole entry): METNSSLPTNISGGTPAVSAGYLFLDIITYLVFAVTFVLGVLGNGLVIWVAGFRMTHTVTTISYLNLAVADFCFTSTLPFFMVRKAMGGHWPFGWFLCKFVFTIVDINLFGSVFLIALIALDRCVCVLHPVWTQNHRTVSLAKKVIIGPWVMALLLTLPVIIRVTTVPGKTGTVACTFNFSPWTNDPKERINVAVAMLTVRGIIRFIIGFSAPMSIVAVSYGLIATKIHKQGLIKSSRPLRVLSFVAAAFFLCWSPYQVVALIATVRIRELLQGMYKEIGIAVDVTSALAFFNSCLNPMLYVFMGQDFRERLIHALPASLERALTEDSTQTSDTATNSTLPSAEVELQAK
Summary of the method: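 CHO cells overexpressing human FPR1 (4,000 cells/well) stimulated with 10 µM forskolin plus 200 µM IBMX in the presence of compound (0.020 nM–100 µM, 1% DMSO), 30 min at room temperature. Intracellular cAMP measured by HTRF. Inhibition of cAMP production fitted to a 4-parameter logistic equation.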

Sequence of human FPR2 (P25090 whole entry): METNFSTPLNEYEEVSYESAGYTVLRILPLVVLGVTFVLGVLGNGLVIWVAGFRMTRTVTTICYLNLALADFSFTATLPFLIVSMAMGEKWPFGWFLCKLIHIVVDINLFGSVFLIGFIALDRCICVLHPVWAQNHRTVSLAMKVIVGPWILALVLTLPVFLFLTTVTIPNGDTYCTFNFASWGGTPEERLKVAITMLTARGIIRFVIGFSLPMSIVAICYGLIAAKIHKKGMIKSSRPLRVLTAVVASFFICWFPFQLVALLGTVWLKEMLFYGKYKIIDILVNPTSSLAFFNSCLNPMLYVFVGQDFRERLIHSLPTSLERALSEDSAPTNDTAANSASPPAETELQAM

SMILES | EC50 (human FPR2) [nM] | EC50 (human FPR1) [nM]
COc1cc(F)c([C@H]2[C@H](NC(=O)c3ccc(Cl)cc3)C(=O)N(c3cccc(N4CC[C@@H](O)C4)n3)[C@@H]2C)c(F)c1 [Example 545] | 6 | 330
COc1cc(F)c([C@@H]2CN(c3cncn(CC4CCOCC4)c3=O)C(=O)[C@H]2NC(=O)c2ccc(Cl)cc2)c(F)c1 [Example 547] | 4.5 | 2400
COc1cc(C2CCN(CC(F)(F)F)CC2)nc(N2C(=O)[C@@H](NC(=O)c3ccc(OC(F)F)cc3)[C@H](c3c(F)cc(OC)cc3F)[C@@H]2C)c1 [Example 548] | 280 | > 5000
COc1cc(F)c([C@@H]2CN(c3nc(C4CCN(CC(F)F)CC4)ccc3F)C(=O)[C@H]2NC(=O)c2ccc(OC(F)F)cc2)c(F)c1 [Example 549] | 4.1 | 28
COc1cc(F)c([C@@H]2CN(c3nc(C4CCN(CC(F)(F)F)CC4)ccc3F)C(=O)[C@H]2NC(=O)c2ccc(OC(F)F)cc2)c(F)c1 [Example 550] | 10 | 3.5
COc1cc(N2C[C@@H]3C[C@H]2CO3)nc(N2C(=O)[C@@H](NC(=O)c3ccc(OC(F)(F)F)cc3)[C@H](c3c(F)cc(OC)cc3F)[C@@H]2C)c1 [Example 552] | 130 | 440
COc1cc(F)c([C@H]2[C@H](NC(=O)c3ccc(Cl)cc3)C(=O)N(c3nccn(CC(F)F)c3=O)[C@@H]2C)c(F)c1 [Example 554] | 4.3 | 2400
COc1cc(F)c([C@H]2[C@H](NC(=O)c3ccc(OC(F)F)cc3)C(=O)N(c3cncn(CC(F)F)c3=O)[C@H]2C)c(F)c1 [Example 555] | 31 | 530
COc1cc(F)c([C@H]2[C@H](NC(=O)c3ccc(OC(F)F)cc3)C(=O)N(c3cccc(OCCO)n3)[C@H]2C)c(F)c1 [Example 559] | 6.6 | 450
COc1cc(F)c([C@H]2[C@H](NC(=O)c3ccc(OC(F)F)cc3)C(=O)N(c3cccc(N4CC[C@@H](O)C4)n3)[C@H]2C)c(F)c1 [Example 561] | 4.3 | 170
COc1cc(C2CCN(C)CC2)nc(N2C(=O)[C@@H](NC(=O)c3ccc(OC(F)(F)F)cc3)[C@H](c3c(F)cc(OC)cc3F)[C@@H]2C)c1 [Example 565] | 8.2 | 720
COc1cc(F)c([C@@H]2CN(c3cccc(N4CCN(S(C)(=O)=O)CC4)n3)C(=O)[C@H]2NC(=O)c2ccc(OC(F)F)cc2)c(F)c1 [Example 567] | 9.6 | > 5000
COc1cc(F)c([C@@H]2CN(c3cc(C)cc(N4C[C@@H]5C[C@H]4CN5C)n3)C(=O)[C@H]2NC(=O)c2ccc(OC(F)(F)F)cc2)c(F)c1 [Example 571] | 6 | 580
COc1cc(F)c([C@H]2[C@H](NC(=O)c3ccc(OC(F)F)cc3)C(=O)N(c3cccc(N4CCOCC4)n3)[C@H]2C)c(F)c1 [Example 574] | 15 | 550
COc1cc(C2CC2)nc(N2C(=O)[C@@H](NC(=O)c3ccc(OC(F)(F)F)cc3)[C@H](c3c(F)cc(OC)cc3F)[C@@H]2C)c1 [Example 575] | 480 | > 5000
COc1cc(F)c([C@@H]2CN(c3c(C)ccn(Cc4cc(C)no4)c3=O)C(=O)[C@H]2NC(=O)c2ccc(OC(F)F)cc2)c(F)c1 [Example 579] | 5.8 | 5.5
COc1cc(F)c([C@@H]2CN(c3cccn(C(CO)C(F)(F)F)c3=O)C(=O)[C@H]2NC(=O)c2ccc(OC(F)F)cc2)c(F)c1 (stereo partly drawn) [Example 582] | 4.7 | 550
COc1cc(N2C[C@@H](c3c(F)cc(OC)cc3F)[C@H](NC(=O)c3ccc(OC(F)(F)F)cc3)C2=O)nc(C(C)(C)O)c1 [Example 584] | 21.8 | 660
COc1cc(N2C[C@@H](c3c(F)cc(OC)cc3F)[C@H](NC(=O)c3ccc(OC(F)F)cc3)C2=O)nc(C(C)(C)O)c1 [Example 585] | 21.8 | 1200
COc1cc(CO)nc(N2C[C@@H](c3c(F)cc(OC)cc3F)[C@H](NC(=O)c3ccc(OC(F)F)cc3)C2=O)c1 [Example 586] | 9.8 | 1300
COc1cc(C)nc(N2C[C@@H](c3c(F)cc(OC)cc3F)[C@H](NC(=O)c3ccc(OC(F)F)cc3)C2=O)c1 [Example 588] | 6.9 | 410
COc1cc(C2CC2)nc(N2C[C@@H](c3c(F)cc(OC)cc3F)[C@H](NC(=O)c3ccc(OC(F)F)cc3)C2=O)c1 [Example 589] | 130 | 2600
COc1cc(F)c([C@@H]2CN(c3c(C)c4c(n(CCO)c3=O)CCC4)C(=O)[C@H]2NC(=O)c2ccc(OC(F)F)cc2)c(F)c1 [Example 591] | 10.5 | 8.5
COc1cc(F)c([C@@H]2CN(c3c(C)c4c(n(CCO)c3=O)CCC4)C(=O)[C@H]2NC(=O)c2ccc(OC(F)(F)F)cc2)c(F)c1 [Example 592] | 7.1 | 6.2
COc1cc(F)c([C@@H]2CN(c3cnn4c3OCCC4)C(=O)[C@H]2NC(=O)c2ccc(Cl)cc2)c(F)c1 [Example 596] | 43.7 | 860

Stronger by EC50 (human FPR2), values ahead:

EC50 (human FPR2) [nM] | EC50 (human FPR1) [nM] | SMILES
3.8 | 57 | COc1cc(F)c([C@@H]2CN(c3cccn(C(CO)C(F)(F)F)c3=O)C(=O)[C@H]2NC(=O)c2ccc(OC(F)F)cc2)c(F)c1 (stereo partly drawn) [Example 583]
3.6 | 0.5 | COCC(CO)n1ccc(C)c(N2C[C@@H](c3ccc(OC)cc3)[C@H](NC(=O)c3ccc(OC(F)(F)F)cc3)C2=O)c1=O (stereo partly drawn) [Example 564]
3.6 | 740 | COc1cc(F)c([C@@H]2CN(c3cccc(N4CCOCC4)n3)C(=O)[C@H]2NC(=O)c2ccc(OC(F)F)cc2)c(F)c1 [Example 580]
3.5 | 1600 | COc1cc(F)c([C@@H]2CN(c3ccc(F)c(N4C[C@@H]5C[C@H]4CN5C)n3)C(=O)[C@H]2NC(=O)c2ccc(OC(F)(F)F)cc2)c(F)c1 [Example 572]
3.3 | 40 | COc1cc(F)c([C@@H]2CN(c3c(C)c4c(n(CCO)c3=O)CCC4)C(=O)[C@H]2NC(=O)c2ccc(Cl)cc2)c(F)c1 [Example 593]
2.8 | 440 | COc1cc(F)c([C@H]2[C@H](NC(=O)c3ccc(OC(F)F)cc3)C(=O)N(c3cccc(N4CC[C@H](O)C4)n3)[C@H]2C)c(F)c1 [Example 568]
2.4 | 1.4 | COc1ccc([C@@H]2CN(c3c(C)ccn(CCC(F)(F)F)c3=O)C(=O)[C@H]2NC(=O)c2ccc(Cl)cc2)cc1 [Example 594]
2.4 | 13 | COc1cc(F)c([C@@H]2CN(c3c(C)ccn(CC#N)c3=O)C(=O)[C@H]2NC(=O)c2ccc(OC(F)(F)F)cc2)c(F)c1 [Example 595]
2.3 | 2.3 | COCC(CO)n1ccc(C)c(N2C[C@@H](c3ccc(OC)cc3)[C@H](NC(=O)c3ccc(OC(F)(F)F)cc3)C2=O)c1=O (stereo partly drawn) [Example 563]
2.2 | 2000 | COc1cc(F)c([C@@H]2CN(c3nc(C4CCN(C)CC4)ccc3F)C(=O)[C@H]2NC(=O)c2ccc(OC(F)F)cc2)c(F)c1 [Example 556]
2.1 | 1800 | COc1cc(F)c([C@@H]2CN(c3nccn(C4CC4)c3=O)C(=O)[C@H]2NC(=O)c2ccc(Cl)cc2)c(F)c1 [Example 546]
1.9 | 1600 | COc1cc(F)c([C@@H]2CN(c3nc(C4CCN(CCO)CC4)ccc3F)C(=O)[C@H]2NC(=O)c2ccc(OC(F)F)cc2)c(F)c1 [Example 590]
1.5 | 77 | COc1cc(F)c([C@@H]2CN(c3nc(C(F)(F)F)ccc3C#N)C(=O)[C@H]2NC(=O)c2ccc(OC(F)(F)F)cc2)c(F)c1 [Example 551]
1.5 | 6 | COc1ccc([C@@H]2CN(c3c(C)ccn(C4COC4)c3=O)C(=O)[C@H]2NC(=O)c2ccc(OC(F)(F)F)cc2)cc1 [Example 578]
1.5 | 210 | COc1cc(F)c([C@@H]2CN(c3cnn4c3OCCC4)C(=O)[C@H]2NC(=O)c2ccc(OC(F)F)cc2)c(F)c1 [Example 597]
1.4 | 1.5 | COc1cc(F)c([C@@H]2CN(c3c(C)ccn(CCS(C)(=O)=O)c3=O)C(=O)[C@H]2NC(=O)c2ccc(OC(F)(F)F)cc2)c(F)c1 [Example 576]
1.3 | 10 | COc1cc(F)c([C@@H]2CN(c3c(C)ccn(CC(C)O)c3=O)C(=O)[C@H]2NC(=O)c2ccc(Cl)cc2)c(F)c1 (stereo partly drawn) [Example 581]
1.2 | 1600 | COc1cc(F)c([C@@H]2CN(c3ccc(F)c(N4C[C@@H]5C[C@H]4CN5C)n3)C(=O)[C@H]2NC(=O)c2ccc(OC(F)F)cc2)c(F)c1 [Example 569]
1.2 | 1500 | COc1cc(F)c([C@@H]2CN(c3cc(C)cc(N4C[C@@H]5C[C@H]4CN5C)n3)C(=O)[C@H]2NC(=O)c2ccc(OC(F)F)cc2)c(F)c1 [Example 570]
1.1 | 990 | COc1cc(F)c([C@@H]2CN(c3cccc(N4CCN(C)CC4)n3)C(=O)[C@H]2NC(=O)c2ccc(OC(F)F)cc2)c(F)c1 [Example 566]
1.1 | 600 | COc1cc(CO)nc(N2C[C@@H](c3c(F)cc(OC)cc3F)[C@H](NC(=O)c3ccc(OC(F)(F)F)cc3)C2=O)c1 [Example 587]
0.8 | 120 | COc1cc(F)c([C@H]2[C@H](NC(=O)c3ccc(Cl)cc3)C(=O)N(c3nccn(CC(F)F)c3=O)[C@H]2C)c(F)c1 [Example 560]
0.6 | 0.2 | COc1ccc([C@@H]2CN(c3c(C)ccn(C4CCC4)c3=O)C(=O)[C@H]2NC(=O)c2ccc(OC(F)F)cc2)cc1 [Example 577]
